From ChEMBL document CHEMBL5154817, “Structure-activity relationship studies on O-alkylamino-tethered salicylamide derivatives with various amino acid linkers as potent anticancer agents” (Eur J Med Chem, 2022)

Assays:
MCF7 = test: Antiproliferative activity against human MCF7 cells assessed as inhibition of cell growth incubated for 72 hrs by MTT assay; assay type: functional, cell-based; details: MCF7, 72 h
MDA-MB-231 = test: Antiproliferative activity against human MDA-MB-231 cells assessed as inhibition of cell growth incubated for 72 hrs by MTT assay; assay type: functional, cell-based; details: MDA-MB-231, 72 h
T47D = test: Antiproliferative activity against human T47D cells assessed as inhibition of cell growth incubated fro 72 hrs by MTT assay; assay type: functional, cell-based
MDA-MB-468 = test: Antiproliferative activity against human MDA-MB-468 cells assessed as inhibition of cell growth incubated for 72 hrs by MTT assay; assay type: functional, cell-based; details: MDA-MB-468, 72 h
[1] = Cytotoxicity against human MCF-10A cells incubated for 72 hrs by MTT assay; assay type: toxicity, cell-based

Compound	IC50 (MCF7)	IC50 (MDA-MB-231)	IC50 (T47D)	IC50 (MDA-MB-468)	IC50 at 72 h [1]
CC(C)(C)OCC(NC(=O)c1cc(Cl)ccc1OCCNC(=O)OC(C)(C)C)C(=O)Nc1ccc([N+](=O)[O-])cc1Cl (single isomer, unassigned)	> 10 µM	> 10 µM	–	–	–
COC(=O)NCCOc1ccc(Cl)cc1C(=O)N[C@H](C(=O)Nc1ccc([N+](=O)[O-])cc1Cl)C(C)C	> 10 µM	> 10 µM	–	–	–
CC(C)[C@H](NC(=O)c1cc(Cl)ccc1OC1CCN(C(=O)OC(C)(C)C)CC1)C(=O)Nc1ccc([N+](=O)[O-])cc1Cl	> 10 µM	> 10 µM	–	–	–
NCCOc1ccc(Cl)cc1C(=O)Nc1ccc([N+](=O)[O-])cc1Cl	4.14 µM	3.48 µM	1.88 µM	5.05 µM	–
CC(C)[C@H](NC(=O)c1cc(Cl)ccc1OCCN)C(=O)Nc1ccc(F)c(F)c1	> 10 µM	> 10 µM	–	–	–
CC(=O)NCCOc1ccc(Cl)cc1C(=O)N[C@H](C(=O)Nc1ccc([N+](=O)[O-])cc1Cl)C(C)C	> 10 µM	> 10 µM	–	–	–
CC(C)[C@H](NC(=O)c1cc(Cl)ccc1OCCNC(=O)OC(C)(C)C)C(=O)Nc1ccc(C(F)(F)F)cc1Cl	> 10 µM	> 10 µM	–	–	–
CC(C)(C)OCC(NC(=O)c1cc(Cl)ccc1OCCN)C(=O)Nc1ccc([N+](=O)[O-])cc1Cl (single isomer, unassigned)	1.62 µM	3.22 µM	–	–	–
CC(C)C[C@H](NC(=O)c1cc(Cl)ccc1OCCN)C(=O)Nc1ccc([N+](=O)[O-])cc1Cl	> 10 µM	> 10 µM	–	–	–
CC(C)[C@H](NC(=O)c1cc(Cl)ccc1OCCCN)C(=O)Nc1ccc([N+](=O)[O-])cc1Cl	> 10 µM	6.77 µM	–	–	–
CC(C)[C@H](NC(=O)c1cc(Cl)ccc1OCCN)C(=O)Nc1ccc(C(F)(F)F)cc1Cl	> 10 µM	5.44 µM	–	–	–
CC(C)[C@H](NC(=O)c1cc(Cl)ccc1OCCNC(=O)OC(C)(C)C)C(=O)Nc1cc(F)cc(C(F)(F)F)c1	11.5 µM	7.87 µM	–	–	–
C[C@H](NC(=O)c1cc(Cl)ccc1OCCNC(=O)OC(C)(C)C)C(=O)Nc1ccc([N+](=O)[O-])cc1Cl	> 10 µM	> 10 µM	–	–	–
CC(C)[C@H](NC(=O)c1cc(Cl)ccc1OCCNC(=O)OC(C)(C)C)C(=O)Nc1cc(C(F)(F)F)cc(C(F)(F)F)c1	> 10 µM	> 10 µM	–	–	–
CC[C@@H](C)[C@H](NC(=O)c1cc(Cl)ccc1OCCNC(=O)OC(C)(C)C)C(=O)Nc1ccc([N+](=O)[O-])cc1Cl	10.5 µM	4.02 µM	–	–	–
CC(C)[C@H](NC(=O)c1cc(Cl)ccc1OCCCNC(=O)OC(C)(C)C)C(=O)Nc1ccc([N+](=O)[O-])cc1Cl	> 10 µM	> 10 µM	–	–	–
CC[C@@H](C)[C@H](NC(=O)c1cc(Cl)ccc1OCCN)C(=O)Nc1ccc([N+](=O)[O-])cc1Cl	> 10 µM	6.18 µM	–	–	–

Compound	IC50 (MCF7)	IC50 (MDA-MB-231)	IC50 (T47D)	IC50 (MDA-MB-468)	IC50 at 72 h [1]
CC(C)[C@H](NC(=O)c1cc(Cl)ccc1OCCCCNC(=O)OC(C)(C)C)C(=O)Nc1ccc([N+](=O)[O-])cc1Cl	> 10 µM	> 10 µM	–	–	–
CC(C)(C)OC(=O)N1CCC(Oc2ccc(Cl)cc2C(=O)N[C@@H](Cc2ccccc2)C(=O)Nc2ccc([N+](=O)[O-])cc2Cl)CC1	> 10 µM	> 10 µM	–	–	–
C=C(NC(=O)c1cc(Cl)ccc1OCCNC(=O)OC(C)(C)C)C(=O)Nc1ccc([N+](=O)[O-])cc1Cl	4.48 µM	5.34 µM	–	–	–
CC(C)[C@H](NC(=O)c1cc(Cl)ccc1OCCCCN)C(=O)Nc1ccc([N+](=O)[O-])cc1Cl	> 10 µM	5.59 µM	–	–	–
CC(C)COC(=O)NCCOc1ccc(Cl)cc1C(=O)N[C@H](C(=O)Nc1ccc([N+](=O)[O-])cc1Cl)C(C)C	10.1 µM	4.9 µM	–	–	–
CC(C)[C@H](NC(=O)c1cc(Cl)ccc1OCCN)C(=O)Nc1cc(C(F)(F)F)cc(C(F)(F)F)c1	6.01 µM	5.43 µM	–	–	–
O=C(N[C@@H](Cc1ccccc1)C(=O)Nc1ccc([N+](=O)[O-])cc1Cl)c1cc(Cl)ccc1OC1CCNCC1	4.48 µM	3.24 µM	–	–	–
O=C(Nc1ccc([N+](=O)[O-])cc1Cl)c1cc(Cl)ccc1O [NICLOSAMIDE]	8.13 µM	1.78 µM	–	–	–
O=C(N[C@@H](Cc1ccccc1)C(=O)Nc1cc(C(F)(F)F)cc(C(F)(F)F)c1)c1cc(Cl)ccc1OC1CCNCC1	2.63 µM	2.32 µM	3.19 µM	2.63 µM	5.9 µM
CC(C)[C@H](NC(=O)c1cc(Cl)ccc1OCCN)C(=O)Nc1cc(F)cc(C(F)(F)F)c1	> 10 µM	4.34 µM	–	–	–
CC(C)(C)OC(=O)CC[C@H](NC(=O)c1cc(Cl)ccc1OCCN)C(=O)Nc1ccc([N+](=O)[O-])cc1Cl	3.08 µM	5.99 µM	–	–	–
CSCC[C@H](NC(=O)c1cc(Cl)ccc1OCCN)C(=O)Nc1ccc([N+](=O)[O-])cc1Cl	> 10 µM	> 10 µM	–	–	–
CC(C)[C@H](NC(=O)c1cc(Cl)ccc1OCCN)C(=O)Nc1ccc([N+](=O)[O-])cc1Cl	> 10 µM	> 10 µM	–	–	–
CC(C)[C@H](NC(=O)c1cc(Cl)ccc1OC1CCNCC1)C(=O)Nc1ccc([N+](=O)[O-])cc1Cl	> 10 µM	5.23 µM	–	–	–
CC(C)(C)OC(=O)N1CCC(Oc2ccc(Cl)cc2C(=O)N[C@@H](Cc2ccccc2)C(=O)Nc2cc(C(F)(F)F)cc(C(F)(F)F)c2)CC1	> 10 µM	> 10 µM	–	–	–
CC(C)(C)OC(=O)CC[C@H](NC(=O)c1cc(Cl)ccc1OCCNC(=O)OC(C)(C)C)C(=O)Nc1ccc([N+](=O)[O-])cc1Cl	> 10 µM	> 10 µM	–	–	–
C[C@H](NC(=O)c1cc(Cl)ccc1OCCN)C(=O)Nc1ccc([N+](=O)[O-])cc1Cl	> 10 µM	> 10 µM	–	–	–

The next lines start with results.

IC50 (MCF7)	IC50 (MDA-MB-231)	IC50 (T47D)	IC50 (MDA-MB-468)	Compound	IC50 at 72 h [1]
> 10 µM	> 10 µM	–	–	CC(C)(C)OC(=O)NCCOc1ccc(Cl)cc1C(=O)N[C@@H](Cc1ccccc1)C(=O)Nc1ccc([N+](=O)[O-])cc1Cl	–
6.58 µM	7.97 µM	–	–	NCCOc1ccc(Cl)cc1C(=O)N[C@@H](Cc1ccccc1)C(=O)Nc1ccc([N+](=O)[O-])cc1Cl	–
1.52 µM	1.53 µM	1.59 µM	2.38 µM	CC(C)[C@H](NC(=O)c1cc(Cl)ccc1OCCNC(=O)OC(C)(C)C)C(=O)Nc1ccc2c(c1)S(=O)(=O)C=C2	2.6 µM
1.62 µM	1.4 µM	1.58 µM	3.53 µM	NCCOc1ccc(Cl)cc1C(=O)N[C@@H](Cc1ccccc1)C(=O)Nc1ccc2c(c1)S(=O)(=O)C=C2	2.03 µM
8.81 µM	> 10 µM	–	–	CC(C)(C)OC(=O)NCCOc1ccc(Cl)cc1C(=O)N[C@@H](Cc1ccc(O)cc1)C(=O)Nc1ccc([N+](=O)[O-])cc1Cl	–
9.44 µM	6.37 µM	–	–	NCCOc1ccc(Cl)cc1C(=O)NCC(=O)Nc1ccc2c(c1)S(=O)(=O)C=C2	–
> 10 µM	> 10 µM	–	–	CC(C)(C)OC(=O)NCCOc1ccc(Cl)cc1C(=O)N[C@@H](CO)C(=O)Nc1ccc([N+](=O)[O-])cc1Cl	–
> 10 µM	> 10 µM	–	–	CC(C)(C)OC(=O)NCCOc1ccc(Cl)cc1C(=O)N[C@@H](Cc1ccccc1)C(=O)Nc1cc(C(F)(F)F)cc(C(F)(F)F)c1	–
> 10 µM	3.72 µM	–	–	CC(C)[C@H](NC(=O)c1cc(Cl)ccc1OCCNC(=O)OC(C)(C)C)C(=O)Nc1ccc(F)c(F)c1	–
> 10 µM	> 10 µM	–	–	CC(C)C[C@H](NC(=O)c1cc(Cl)ccc1OCCNC(=O)OC(C)(C)C)C(=O)Nc1ccc([N+](=O)[O-])cc1Cl	–
> 10 µM	> 10 µM	–	–	CSCC[C@H](NC(=O)c1cc(Cl)ccc1OCCNC(=O)OC(C)(C)C)C(=O)Nc1ccc([N+](=O)[O-])cc1Cl	–
> 10 µM	> 10 µM	–	–	CC(C)[C@H](NC(=O)c1cc(Cl)ccc1OCCNC(=O)OCc1ccccc1)C(=O)Nc1ccc([N+](=O)[O-])cc1Cl	–
2.95 µM	4.92 µM	–	–	NCCOc1ccc(Cl)cc1C(=O)N[C@@H](Cc1ccccc1)C(=O)Nc1cc(C(F)(F)F)cc(C(F)(F)F)c1	–
4.89 µM	5.02 µM	–	–	NCCOc1ccc(Cl)cc1C(=O)N[C@H](Cc1ccccc1)C(=O)Nc1ccc([N+](=O)[O-])cc1Cl	–
1.43 µM	2.08 µM	–	–	CC(C)(C)OC(=O)NCCOc1ccc(Cl)cc1C(=O)NCC(=O)Nc1ccc2c(c1)S(=O)(=O)C=C2	–
1.53 µM	1.17 µM	1.46 µM	–	CC(C)(C)OC(=O)NCCOc1ccc(Cl)cc1C(=O)N[C@@H](Cc1ccccc1)C(=O)Nc1ccc2c(c1)S(=O)(=O)C=C2	1.73 µM
4.35 µM	5.95 µM	–	–	CC(C)[C@H](NC(=O)c1cc(Cl)ccc1OCCN)C(=O)Nc1ccc2c(c1)S(=O)(=O)C=C2	–
